One data set concerns the target T1, BadM (Rhodopseudomonas palustris, UniProt O07465).
T1 construct: plasmid pRpBadM8, expressed in E. coli C41(lambda-DE3) pka12::kan+, purified; tag details in Text S1
Kind of data set: EMSA with 6-FAM-labelled badDEFGAB promoter probe. The settings on record: 72 nM BadM, 12 nM probe; 10 mM compound, blocks DNA binding; no effect at 5 mM.

For the next data set, the target named is T2, MmBadL (Paramagnetospirillum magneticum, UniProt Q2W1S9).
T2 construct: gene amb3392; plasmid pMmBadL2, expressed in E. coli C41(lambda-DE3) pka12::kan+, purified; tag details in Text S1
The experiment in a line: [[…]-14C]acetyl-CoA transfer, TLC phosphor imaging. Format: biochemical. The settings on record: co-substrate acetyl-CoA.

Another data set concerns the target T3, GmBadL (Geobacter metallireducens, UniProt Q39TU9).
T3 construct: gene Gmet_2096; plasmid pGmBadL1, expressed in E. coli C41(lambda-DE3) pka12::kan+, purified; tag details in Text S1
Kind of data set: [[…]-14C]acetyl-CoA transfer, TLC phosphor imaging. The data set is classed as biochemical. To be noted: co-substrate acetyl-CoA.

Data set [1] deals with T4, BadM (Rhodopseudomonas palustris) (UniProt O07465).
T4 sequence: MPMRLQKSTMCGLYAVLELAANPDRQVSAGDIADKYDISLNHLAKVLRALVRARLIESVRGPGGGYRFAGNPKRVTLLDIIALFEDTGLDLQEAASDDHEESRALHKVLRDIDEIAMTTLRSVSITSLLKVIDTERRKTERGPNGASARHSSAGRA
The experiment in a line: EMSA. To be noted: 25 µL; Tris 20 mM pH 7.5 (at 25°C), KCl 50 mM, DTT 1 mM, glycerol (rest of buffer not in the material); probe 12 nM (0.303 pmol), BadM 72 nM (1.8 pmol) ….

T3 sequence (Q39TU9 entry or part of it): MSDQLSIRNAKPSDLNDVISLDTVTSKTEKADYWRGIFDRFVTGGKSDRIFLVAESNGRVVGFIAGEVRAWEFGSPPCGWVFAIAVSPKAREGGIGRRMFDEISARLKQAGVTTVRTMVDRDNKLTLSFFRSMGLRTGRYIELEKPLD
T2 sequence (Q2W1S9 entry or part of it): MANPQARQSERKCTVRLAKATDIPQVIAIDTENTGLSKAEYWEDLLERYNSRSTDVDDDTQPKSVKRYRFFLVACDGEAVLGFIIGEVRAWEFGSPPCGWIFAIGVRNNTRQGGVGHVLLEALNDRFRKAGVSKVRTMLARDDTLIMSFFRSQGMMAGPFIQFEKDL

As to `CC(=O)Nc1ccccc1C(=O)O` [2-ABA^Ac, 2-acetamidobenzoate], the “EMSA with 6-FAM-labelled badDEFGAB promoter probe” value on BadM is “addition of 2-acetamidobenzoate blocked binding of BadM to its DNA target”. For the compound `Nc1ccc(C(=O)O)cc1` [4-ABA, 4-aminobenzoate], the “[1-14C]acetyl-CoA transfer, TLC phosphor imaging” value on MmBadL is “MmBadL and GmBadL acetylated 4-aminobenzoate producing 4-acetamidobenzoate”; at GmBadL, “MmBadL and GmBadL acetylated 4-aminobenzoate producing 4-acetamidobenzoate”. For the compound “GTGATGCGGCCTGTCGAGCATGCCGGTCGTCCTCCCTGCCCGGCGGCTCTGCCGGGTCGCGCTGCCGGCCATTTTCCGGCCCAGCGATTTAAATGTAATCTAGTATCGGAATGCGATAATTAATTTGATGCGGATCAAATTTGGCAAAGGCACAGCCGACACGGGCCGACGCCGGCTCGTAGTCGGGAGGCTCAGATATCGATCGCGATCTT (double strand) [badDEFGAB promoter / badCD intergenic probe]”, the binding entry in data set [1] was “binds”.

Values taken from article PMC6191541, “Small-Molecule Acetylation Controls the Degradation of Benzoate and Photosynthesis in Rhodopseudomonas palustris” (mBio, 2018).
